Source: patent US12077503B2, “Substituted cyclic amides and their use as herbicides” (FMC CORPORATION, priority 2015, dated 2024)

What was measured:
Assay type in all cases: in vivo
[1] = system: ivy-leaved morning glory (Ipomoea hederacea); assay: Test G Pre-Emergence Protocol; conditions: evaluated after 13 days; for pest or weed control at 15.625 g/ha: 15.625 g ai/ha; for pest or weed control at 15.625 g/ha / pest or weed control at 250 g/ha: read-out: Morningglory, Ivy-leaved damage rating (100=total damage to plant; 0=no damage to plant); for pest or weed control at 250 g/ha: 250 g ai/ha
Summary of the method: (§1)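 Visual injury (0–100) at day 13 after a single pre-emergence spray. Rates: 15.625, 62.5, 250 g/ha in acetone–water 50:50 with 0.5% Tween 20. Growth conditions: 24/16° C, 14 h light, 65% humidity.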

[2] = system: giant foxtail (Setaria faberi); assay: Test G Pre-Emergence Protocol; conditions: Setaria faberi, pre-emergence, 312 h, evaluated after 13 days; for pest or weed control at 15.625 g/ha: 15.625 g ai/ha; for pest or weed control at 15.625 g/ha / pest or weed control at 250 g/ha: read-out: Foxtail, Giant damage rating (100=total damage to plant; 0=no damage to plant); for pest or weed control at 62.5 g/ha: 62.5 g ai/ha, 100=total damage to plant, 0=no damage to plant, read-out: Foxtail, Giant damage rating; for pest or weed control at 250 g/ha: 250 g ai/ha
Summary of the method: as §1

corn (Zea mays) [3] = assay: Test G Pre-Emergence Protocol; conditions: evaluated after 13 days; for plant injury at 62.5 g/ha: 62.5 g ai/ha, 100=total damage to plant, 0=no damage to plant, read-out: Corn damage rating; for plant injury at 250 g/ha: 250 g ai/ha
Summary of the method: as §1

[4] = system: velvetleaf (Abutilon theophrasti); assay: Test G Pre-Emergence Protocol; conditions: evaluated after 13 days; for pest or weed control at 62.5 g/ha: 62.5 g ai/ha, 100=total damage to plant, 0=no damage to plant, read-out: Velvetleaf damage rating; for pest or weed control at 250 g/ha: 250 g ai/ha
Summary of the method: as §1

[5] = system: barnyardgrass (Echinochloa crus-galli); assay: Test G Pre-Emergence Protocol; conditions: Echinochloa crus-galli, pre-emergence, 312 h, evaluated after 13 days; for pest or weed control at 15.625 g/ha: 15.625 g ai/ha; for pest or weed control at 15.625 g/ha / pest or weed control at 250 g/ha: read-out: Barnyardgrass damage rating (100=total damage to plant; 0=no damage to plant); for pest or weed control at 62.5 g/ha: 62.5 g ai/ha, 100=total damage to plant, 0=no damage to plant, read-out: Barnyardgrass damage rating; for pest or weed control at 250 g/ha: 250 g ai/ha
Summary of the method: as §1

[6] = system: redroot pigweed (Amaranthus retroflexus); assay: Test G Pre-Emergence Protocol; conditions: evaluated after 13 days; for pest or weed control at 15.625 g/ha: 15.625 g ai/ha; for pest or weed control at 62.5 g/ha: 62.5 g ai/ha, 100=total damage to plant, 0=no damage to plant, read-out: Pigweed, Redroot damage rating
Summary of the method: as §1

[7] = system: ivy-leaved morning glory (Ipomoea hederacea); assay: Test G Post-Emergence Protocol; conditions: for pest or weed control at 62.5 g/ha: 62.5 g ai/ha; for pest or weed control at 62.5 g/ha / pest or weed control at 250 g/ha: evaluated after 13 days, 100=total damage to plant, 0=no damage to plant; for pest or weed control at 250 g/ha: 250 g ai/ha
Summary of the method: (§2)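 Scores run 0 (no damage) to 100 (total damage) and were taken 13 days after spraying. Plants had been raised in pots for 8 days under glasshouse control (24/16 °C, 14 h photoperiod, 65% humidity) and then treated at 15.625, 62.5 or 250 g/ha.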

[8] = system: giant foxtail (Setaria faberi); assay: Test G Post-Emergence Protocol; conditions: Setaria faberi, post-emergence, 312 h, read-out: Foxtail, Giant damage rating; for pest or weed control at 15.625 g/ha: 15.625 g ai/ha, evaluated after 13 days (100=total damage to plant; 0=no damage to plant); for pest or weed control at 62.5 g/ha: 62.5 g ai/ha; for pest or weed control at 62.5 g/ha / pest or weed control at 250 g/ha: evaluated after 13 days, 100=total damage to plant, 0=no damage to plant; for pest or weed control at 250 g/ha: 250 g ai/ha
Summary of the method: as §2

corn (Zea mays) [9] = assay: Test G Post-Emergence Protocol; conditions: Zea mays, post-emergence, 312 h, read-out: Corn damage rating; for plant injury at 15.625 g/ha: 15.625 g ai/ha, evaluated after 13 days (100=total damage to plant; 0=no damage to plant); for plant injury at 62.5 g/ha: 62.5 g ai/ha; for plant injury at 62.5 g/ha / plant injury at 250 g/ha: evaluated after 13 days, 100=total damage to plant, 0=no damage to plant; for plant injury at 250 g/ha: 250 g ai/ha
Summary of the method: as §2

[10] = system: velvetleaf (Abutilon theophrasti); assay: Test G Post-Emergence Protocol; conditions: for pest or weed control at 15.625 g/ha: 15.625 g ai/ha, evaluated after 13 days (100=total damage to plant; 0=no damage to plant); for pest or weed control at 250 g/ha: 250 g ai/ha
Summary of the method: as §2

[11] = system: barnyardgrass (Echinochloa crus-galli); assay: Test G Post-Emergence Protocol; conditions: Echinochloa crus-galli, post-emergence, 312 h, read-out: Barnyardgrass damage rating; for pest or weed control at 15.625 g/ha: 15.625 g ai/ha, evaluated after 13 days (100=total damage to plant; 0=no damage to plant); for pest or weed control at 62.5 g/ha: 62.5 g ai/ha; for pest or weed control at 62.5 g/ha / pest or weed control at 250 g/ha: evaluated after 13 days, 100=total damage to plant, 0=no damage to plant; for pest or weed control at 250 g/ha: 250 g ai/ha
Summary of the method: as §2

[12] = system: redroot pigweed (Amaranthus retroflexus); assay: Test G Post-Emergence Protocol; conditions: Amaranthus retroflexus, post-emergence, 312 h, read-out: Pigweed, Redroot damage rating; for pest or weed control at 15.625 g/ha: 15.625 g ai/ha, evaluated after 13 days (100=total damage to plant; 0=no damage to plant); for pest or weed control at 62.5 g/ha: 62.5 g ai/ha; for pest or weed control at 62.5 g/ha / pest or weed control at 250 g/ha: evaluated after 13 days, 100=total damage to plant, 0=no damage to plant; for pest or weed control at 250 g/ha: 250 g ai/ha
Summary of the method: as §2

[13] = Zea mays, pre-emergence, 312 h, read-out: Corn damage rating (100=total damage to plant; 0=no damage to plant)
[14] = Abutilon theophrasti, pre-emergence, 312 h
[15] = Abutilon theophrasti, pre-emergence, 312 h, read-out: Velvetleaf damage rating (100=total damage to plant; 0=no damage to plant)
[16] = Amaranthus retroflexus, pre-emergence, 312 h, read-out: Pigweed, Redroot damage rating (100=total damage to plant; 0=no damage to plant)
[17] = Amaranthus retroflexus, pre-emergence, 312 h
[18] = Ipomoea, post-emergence, 312 h, read-out: Morningglory, Ivy-leaved damage rating
[19] = Abutilon theophrasti, post-emergence, 312 h, read-out: Velvetleaf damage rating
[20] = Abutilon theophrasti, post-emergence, 312 h, evaluated after 13 days, 100=total damage to plant, 0=no damage to plant, read-out: Velvetleaf damage rating

SMILES	pest or weed control at 15.625 g/ha ([1]; Ipomoea, pre-emergence, 312 h)	pest or weed control at 250 g/ha ([1]; Ipomoea, pre-emergence, 312 h)	pest or weed control at 15.625 g/ha [2]	pest or weed control at 62.5 g/ha [2]	pest or weed control at 250 g/ha [2]	plant injury at 62.5 g/ha (corn (Zea mays) [3]; Zea mays, pre-emergence, 312 h)	plant injury at 250 g/ha (corn (Zea mays) [3]; [13])	pest or weed control at 62.5 g/ha [4, 14]	pest or weed control at 250 g/ha [4, 15]	pest or weed control at 15.625 g/ha [5]	pest or weed control at 62.5 g/ha [5]	pest or weed control at 250 g/ha [5]	pest or weed control at 15.625 g/ha [6, 16]	pest or weed control at 62.5 g/ha [6, 17]	pest or weed control at 62.5 g/ha [7, 18]	pest or weed control at 250 g/ha [7, 18]	pest or weed control at 15.625 g/ha [8]	pest or weed control at 62.5 g/ha [8]	pest or weed control at 250 g/ha [8]	plant injury at 15.625 g/ha (corn (Zea mays) [9])	further results
CN1C[C@H](c2cccc(C(F)(F)F)c2)[C@@H](C(=O)Nc2cccc(F)n2)C1=O (racemic) [Compound 1671]	10%	70%	80%	90%	90%	80%	80%	30%	60%	70%	90%	90%	0%	30%	70%	50%	70%	80%	80%	60%	Morningglory, Ivy-leaved damage rating ([1]; 62.5 g ai/ha, 100=total damage to plant, 0=no damage to plant): 20; Corn damage rating (100=total damage to plant; 0=no damage to plant) (corn (Zea mays) [3]; 15.625 g ai/ha): 30; Velvetleaf damage rating (100=total damage to plant; 0=no damage to plant) ([4]; 15.625 g ai/ha): 20; Pigweed, Redroot damage rating (100=total damage to plant; 0=no damage to plant) ([6]; 250 g ai/ha): 50; Morningglory, Ivy-leaved damage rating ([7]; 15.625 g ai/ha, evaluated after 13 days (100=total damage to plant; 0=no damage to plant)): 0; plant injury at 62.5 g/ha (corn (Zea mays) [9]): 70%; plant injury at 250 g/ha (corn (Zea mays) [9]): 80%; Velvetleaf damage rating ([10]; 62.5 g ai/ha, evaluated after 13 days, 100=total damage to plant, 0=no damage to plant): 10; pest or weed control at 15.625 g/ha [10, 19]: 0%; pest or weed control at 250 g/ha [10, 20]: 40%; pest or weed control at 15.625 g/ha [11]: 70%; pest or weed control at 62.5 g/ha [11]: 70%; pest or weed control at 250 g/ha [11]: 80%; pest or weed control at 15.625 g/ha [12]: 10%; pest or weed control at 62.5 g/ha [12]: 30%; pest or weed control at 250 g/ha [12]: 50%
Cc1ccc([C@H]2CN(C)C(=O)[C@@H]2C(=O)Nc2ccc3cccnc3n2)cc1 (racemic) [Compound 1675]	0%	0%	0%	0%	10%	0%	0%	0%	0%	0%	0%	0%	0%	0%	0%	0%	0%	0%	20%	0%	pest or weed control at 62.5 g/ha ([1]; Ipomoea, pre-emergence, 312 h, 62.5 g ai/ha, 100=total damage to plant, 0=no damage to plant, read-out: Morningglory, Ivy-leaved damage rating): 0%; plant injury at 15.625 g/ha (corn (Zea mays) [3]; Zea mays, pre-emergence, 312 h, 15.625 g ai/ha, read-out: Corn damage rating (100=total damage to plant; 0=no damage to plant)): 0%; pest or weed control at 15.625 g/ha ([4]; Abutilon theophrasti, pre-emergence, 312 h, 15.625 g ai/ha, read-out: Velvetleaf damage rating (100=total damage to plant; 0=no damage to plant)): 0%; pest or weed control at 250 g/ha ([6]; Amaranthus retroflexus, pre-emergence, 312 h, 250 g ai/ha, read-out: Pigweed, Redroot damage rating (100=total damage to plant; 0=no damage to plant)): 0%; pest or weed control at 15.625 g/ha ([7]; Ipomoea, post-emergence, 312 h, 15.625 g ai/ha, evaluated after 13 days (100=total damage to plant; 0=no damage to plant), read-out: Morningglory, Ivy-leaved damage rating): 0%; plant injury at 62.5 g/ha (corn (Zea mays) [9]): 0%; plant injury at 250 g/ha (corn (Zea mays) [9]): 0%; pest or weed control at 15.625 g/ha [10, 19]: 0%; pest or weed control at 62.5 g/ha ([10]; Abutilon theophrasti, post-emergence, 312 h, 62.5 g ai/ha, evaluated after 13 days, 100=total damage to plant, 0=no damage to plant, read-out: Velvetleaf damage rating): 0%; pest or weed control at 250 g/ha [10, 20]: 10%; pest or weed control at 15.625 g/ha [11]: 0%; pest or weed control at 62.5 g/ha [11]: 0%; pest or weed control at 250 g/ha [11]: 0%; pest or weed control at 15.625 g/ha [12]: 0%; pest or weed control at 62.5 g/ha [12]: 0%; pest or weed control at 250 g/ha [12]: 0%
